Source: article PMC8876525 (Viruses, 2022)
Marks after values point to notes of the source that are not given here.

Legend:
HBV [1] = test: Secreted HBV DNA in HepAD38 culture supernatant (RT-qPCR); format: cell-based; details: HepAD38 cells; for EC50: 6 days, read-out: EC50 (secreted HBV DNA); for Residual HBV DNA level (secreted) relative to DMSO control: 20 μM compound
[2] = CCK-8 cytotoxicity assay in HepAD38 cells; format: cell-based, Human; details: human, 6 days
HepAD38 cells = test: CCK-8 cytotoxicity assay in HepAD38 cells; format: cell-based, Human
HBV [3] = test: Secreted HBV DNA in HepG2-HBV1.3 culture supernatant (RT-qPCR); format: cell-based; details: Hepatitis B virus, 144 h; HepG2-HBV1.3 cells, 6 days
[4] = test system: ETV-resistant mutant (rtL180M/S202G/M204V) HBV; test: Drug susceptibility assay, HepG2 transfected with ETV-resistant mutant; format: cell-based; details: Hepatitis B virus, HepG2, 144 h, read-out: viral replication EC50
HBV capsid = HBV capsid (Hepatitis B virus genotype D subtype ayw, UniProt P03146); test: Intracellular HBV capsid formation; format: cell-based; details: HepAD38 or HepG2-HBV1.3 cells, compounds 10 μM, ETV 25 nM, BAY 41-4109 2 μM, 6 days
Cp149 protein = Cp149 protein (Hepatitis B virus genotype D subtype ayw, UniProt P03146); test: Cp149 capsid assembly in vitro, transmission electron microscopy; format: biochemical, HBV; details: Cp149 5 μM dimer, 300 mM NaCl, 150 mM HEPES pH 7.5; BAY 41-4109 5 μM 3 days, C-39 20 μM 3 and 7 days
HBeAg = test: Secreted HBeAg ELISA; format: cell-based, HBV; details: 6 days
HBV core DNA = test: Intracellular HBV core DNA (qPCR) and replicative intermediates (Southern blot); format: cell-based; details: 6 days, qPCR
HBV encapsidated pgRNA = test: Encapsidated pgRNA and total HBV RNAs (Northern blot); format: cell-based; details: HepAD38 cells, BAY 41-4109 2 μM; for Effect on intracellular total HBV RNAs: C-18, C-39 5 μM; for Effect on HBV encapsidated pgRNA: C-18, C-39, C-19 5 μM, ETV 25 nM
[5] = CCK-8 cytotoxicity assay in HepG2-HBV1.3 (HepG2) cells; format: cell-based; details: human
HBsAg = test: Secreted HBsAg ELISA; format: cell-based, HBV; details: 6 days, ETV 25 nM, BAY 41-4109 2 μM
HBc = HBc (Hepatitis B virus genotype D subtype ayw, UniProt P03146); test: Immunofluorescence of HBV core protein in HepAD38 cells; format: cell-based; details: 3 days, BAY 41-4109 2 μM; for HBc localisation / aggregation: C-18 and C-39 5 μM; for HBc level by immunofluorescence: C-39 5 μM
HBV [6] = test: HepG2-NTCP de novo HBV infection model (viral markers, cccDNA Taq-Man qPCR); format: cell-based; details: HepG2-NTCP cells, 5 μM
wild-type HBV = test: Drug susceptibility assay, HepG2 transfected with HBV1.1-WT; format: cell-based; details: Hepatitis B virus, 144 h; wild-type HBV in HepG2, secreted HBV DNA, 6 days; read-out: viral replication EC50
HBV 3.5 kb RNA = test: Intracellular HBV 3.5 kb RNA (RT-qPCR); format: cell-based; details: 6 days

Sequence of HBV capsid (P03146 whole entry): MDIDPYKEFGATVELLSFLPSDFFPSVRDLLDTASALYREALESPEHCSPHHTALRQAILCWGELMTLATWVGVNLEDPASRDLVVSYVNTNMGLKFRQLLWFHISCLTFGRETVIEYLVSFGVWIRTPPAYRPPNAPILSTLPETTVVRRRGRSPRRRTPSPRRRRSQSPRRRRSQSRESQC
Sequence of HBc (P03146 whole entry): as above
Sequence of Cp149 protein (P03146 1-149): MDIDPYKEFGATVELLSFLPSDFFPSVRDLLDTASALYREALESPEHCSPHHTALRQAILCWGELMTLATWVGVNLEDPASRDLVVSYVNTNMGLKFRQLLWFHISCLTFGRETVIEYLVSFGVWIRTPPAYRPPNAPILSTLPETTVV

CC1Oc2ccc(S(=O)(=O)N3CCCC(C(=O)Nc4ccc(F)c(Cl)c4)C3)cc2NC1=O (stereo not shown) [Compound C-35]
SI (CC50/EC50) (HBV [1]): 23.9 ^a
EC50 (HBV [1]; Hepatitis B virus, 144 h): 0.41 ± 0.01 µM
CC50 at 6 days [2]: 9.8 ± 1 µM
Cytotoxicity in words (HepAD38 cells): medium cytotoxicity

CCOC(=O)c1c(S(=O)(=O)N2CCCC(C(=O)Nc3ccc(F)c(Cl)c3)C2)c(C)n(C)c1C (stereo not shown) [Compound C-39]
EC50 (HBV [3]): 0.075 ± 0.016 µM
EC50 [4]: 0.084 µM
Effect on intracellular HBV capsid formation at single concentration (HBV capsid): dramatically inhibited capsid formation
Morphology of assembled Cp149 particles (TEM) (Cp149 protein): effectively accelerated the formation of capsid-like particles with time
HBV DNA secretion and intracellular HBV DNA in combination with ETV vs ETV alone (HBV [1]; 5 nM ETV together with C-39 0-10 μM): further inhibition
EC50 (HBV [1]; Hepatitis B virus, 144 h): 0.056 ± 0.013 µM
Effect on secreted HBeAg (HBeAg; HepAD38 cells): markedly reduced
Effect on secreted HBeAg (HBeAg; HepG2-HBV1.3 cells): markedly reduced
Effect on intracellular HBV core DNA (HBV core DNA; HepAD38 cells): markedly reduced
Effect on intracellular HBV core DNA (HBV core DNA; HepG2-HBV1.3 cells): markedly reduced
CC50 at 6 days [2]: > 100 µM
Cytotoxicity in words (HepAD38 cells): no obvious toxicity
Effect on intracellular total HBV RNAs (HBV encapsidated pgRNA): slight decrease
Effect on HBV encapsidated pgRNA (HBV encapsidated pgRNA): markedly downregulated
CC50 at 6 days [5]: > 100 µM
Effect on secreted HBsAg (HBsAg; HepAD38 cells): no impact on HBsAg production
Effect on secreted HBsAg (HBsAg; HepG2-HBV1.3 cells): no impact on HBsAg production
HBc localisation / aggregation (HBc): induced punctate HBc aggregation within the nucleus
HBc level by immunofluorescence (HBc): significantly decreased the HBc level
Effect on cccDNA formation, treatment together with viral inoculum (day 0) (HBV [6]): prevented the formation of cccDNA during the early postentry step
Effect on pre-established cccDNA, treatment 4 days after infection (day 4) (HBV [6]): minor effect
EC50 (wild-type HBV): 0.078 µM
Effect on intracellular HBV 3.5 kb RNA (HBV 3.5 kb RNA; HepAD38 cells): markedly reduced
Effect on intracellular HBV 3.5 kb RNA (HBV 3.5 kb RNA; HepG2-HBV1.3 cells): markedly reduced

COC(=O)C1=C(C)NC(c2ncc(F)cc2F)=N[C@H]1c1ccc(F)cc1Cl [BAY 41-4109, reference compound]
Effect on intracellular HBV capsid formation at single concentration (HBV capsid): dramatically inhibited capsid formation
Morphology of assembled Cp149 particles (TEM) (Cp149 protein): large irregular particles
EC50 (HBV [1]): 0.067 ± 0.01 µM
Effect on intracellular total HBV RNAs (HBV encapsidated pgRNA): slight decrease
Effect on HBV encapsidated pgRNA (HBV encapsidated pgRNA): markedly downregulated
Effect on secreted HBsAg (HBsAg; HepAD38 cells): no impact on HBsAg production
Effect on secreted HBsAg (HBsAg; HepG2-HBV1.3 cells): no impact on HBsAg production
HBc localisation / aggregation (HBc): induced punctate HBc aggregation within the nucleus
HBc level by immunofluorescence (HBc): significantly decreased the HBc level

Cc1cccc(NC(=O)c2ccc3nnc(SCC(=O)Nc4ccc(F)c(F)c4)n3c2)c1 [Compound C-16]
Effect on intracellular HBV capsid formation at single concentration (HBV capsid): did not affect the capsid formation
SI (CC50/EC50) (HBV [1]): 56.3
EC50 (HBV [1]; Hepatitis B virus, 144 h): 1.29 ± 0.35 µM
CC50 at 6 days [2]: 72.4 ± 1.9 µM

O=C(CSc1nnc2ccc(C(=O)Nc3cccc(F)c3)cn12)Nc1ccc(F)c(F)c1 [Compound C-25]
SI (CC50/EC50) (HBV [1]): 114.6 ^a
EC50 (HBV [1]; Hepatitis B virus, 144 h): 0.29 ± 0.02 µM
CC50 at 6 days [2]: 33.2 ± 1.9 µM

CCOC(=O)c1c(C)[nH]c(C)c1S(=O)(=O)N1CCCC(C(=O)Nc2ccc(F)c(Cl)c2)C1 (stereo not shown) [Compound C-37]
SI (CC50/EC50) (HBV [1]): 31.3 ^a
EC50 (HBV [1]; Hepatitis B virus, 144 h): 0.35 ± 0.05 µM
CC50 at 6 days [2]: 11 ± 0.7 µM

O=C(Nc1ccc(F)c(F)c1)c1cc(S(=O)(=O)N(CCc2ccccc2)Cc2ccccc2)ccc1F [Compound C-19]
Effect on intracellular HBV capsid formation at single concentration (HBV capsid): did not affect the capsid formation
SI (CC50/EC50) (HBV [1]): 194.1
EC50 (HBV [1]; Hepatitis B virus, 144 h): 0.39 ± 0.13 µM
CC50 at 6 days [2]: 75.3 ± 5.2 µM
Effect on HBV encapsidated pgRNA (HBV encapsidated pgRNA): slight effects

Cc1onc(C(=O)Nc2ccc(F)c(F)c2)c1COc1cccc(C(F)(F)F)c1 [Compound C-1]
Residual HBV DNA level (secreted) relative to DMSO control (HBV [1]): 62%

O=C(CSc1nnc(-c2cccs2)n1CCc1ccccc1)Nc1ccc(F)cc1 [Compound C-7]
Effect on intracellular HBV capsid formation at single concentration (HBV capsid): moderate inhibition
SI (CC50/EC50) (HBV [1]): >54.7
EC50 (HBV [1]; Hepatitis B virus, 144 h): 1.83 ± 0.44 µM
CC50 at 6 days [2]: > 100 µM

Cc1cc(O)c(C2=Nc3c(C(N)=O)cnn3C(c3cccc(Cl)c3)C2)c(=O)o1 (stereo not shown) [Compound C-6]
Residual HBV DNA level (secreted) relative to DMSO control (HBV [1]): 36%

CC1(C(=O)NCc2ccc(F)cc2)CCCN(C(=O)Nc2ccc(F)c(Cl)c2)C1 (stereo not shown) [Compound C-27]
SI (CC50/EC50) (HBV [1]): 72.8 ^a
EC50 (HBV [1]; Hepatitis B virus, 144 h): 1.12 ± 0.05 µM
CC50 at 6 days [2]: 81.5 ± 5.8 µM
